Test results: the NIST ThermoML archive (doi:10.1021/je900266h)

What was measured:
[1] = refractive index (Na D-line) (dimensionless); mn = molality of the nth substance listed, in mol/kg; conditions: 101 kPa, Liquid, Standard Abbe refractometry
[2] = refractive index (Na D-line) (dimensionless); conditions: 101.33 kPa, Liquid, Standard Abbe refractometry

O=S(=O)([O-])[O-].[Cu+2] [copper sulfate] + O
refractive index, [1]
Conditions | 288.15 K | 298.15 K | 308.15 K | 318.15 K
m1 = 0.1346 | 1.33752 | 1.33658 | 1.33528 | 1.33371
m1 = 0.3007 | 1.34217 | 1.34125 | 1.33987 | 1.33834
m1 = 0.4408 | 1.34604 | 1.3451 | 1.3436 | 1.34204
m1 = 0.5896 | 1.35008 | 1.34915 | 1.34753 | 1.34587
m1 = 0.7359 | 1.35392 | 1.35287 | 1.35129 | 1.34951
m1 = 0.859 | 1.35712 | 1.35606 | 1.35427 | 1.35249
m1 = 1.016 | 1.36104 | 1.36002 | 1.35816 | 1.35632
m1 = 1.179 | 1.3651 | 1.36398 | 1.36209 | 1.36027
m1 = 1.301 | 1.36803 | 1.367 | 1.365 | 1.36305
m1 = 1.456 | – | 1.3706 | 1.36872 | 1.36664
m1 = 1.579 | – | – | 1.37162 | 1.36952
m1 = 1.736 | – | – | – | 1.37296
m1 = 1.891 | – | – | – | 1.37632
m1 = 2.058 | – | – | – | 1.38013

CCO [ethanol]
[2]
Conditions | refractive index
288.15 K | 1.36344
298.15 K | 1.35922
308.15 K | 1.35477
318.15 K | 1.35068

O=S(=O)([O-])[O-].[Li+].[Li+] [lithium sulfate] + O
refractive index, [1]
Conditions | 288.15 K | 298.15 K | 308.15 K | 318.15 K
m1 = 0.252 | 1.3383 | 1.33727 | 1.33612 | 1.33446
m1 = 0.4681 | 1.34212 | 1.34096 | 1.33987 | 1.33812
m1 = 0.7337 | 1.34651 | 1.34534 | 1.34419 | 1.3426
m1 = 0.9917 | 1.35062 | 1.34944 | 1.34829 | 1.3467
m1 = 1.245 | 1.3544 | 1.35316 | 1.35198 | 1.35056
m1 = 1.468 | 1.35752 | 1.35628 | 1.35518 | 1.35375
m1 = 1.756 | 1.3614 | 1.36011 | 1.35905 | 1.35765
m1 = 1.757 | 1.36143 | 1.36015 | 1.35909 | 1.35767
m1 = 1.939 | 1.36365 | 1.36242 | 1.36134 | 1.35998
m1 = 2.124 | 1.36601 | 1.36472 | 1.36368 | 1.36227
m1 = 2.306 | 1.36812 | 1.36691 | 1.36574 | 1.36453
m1 = 2.542 | 1.3709 | 1.36964 | 1.3685 | 1.3672
m1 = 2.798 | 1.3736 | 1.37243 | 1.37124 | 1.37003
m1 = 2.983 | 1.37551 | 1.37442 | 1.37316 | 1.37206
m1 = 3.158 | 1.37704 | – | – | –
m1 = 3.22 | 1.37774 | – | – | –
